Assay results: patent US9393232B2 (BeiGene, Ltd., priority 2013, dated 2016)
Like-named read-outs stand apart in the source and are kept apart here.

How the values were obtained:
[1] = molecular target: Recombinant human BRD2(1-473) (Homo sapiens (Human), UniProt P25440); experiment: BRD2 TR-FRET biochemical IC50 assay; type: binding
[2] = molecular target: Recombinant human BRD4(1-477) (Homo sapiens (Human), UniProt O60885); experiment: BRD4 TR-FRET biochemical IC50 assay; type: binding; settings: tetra-acetylated histone peptide
[3] = molecular target: Recombinant human BRD3(1-435) (Homo sapiens (Human), UniProt Q15059); experiment: BRD3 TR-FRET biochemical IC50 assay; type: binding
Chain of Recombinant human BRD3(1-435) (Q15059 1-435): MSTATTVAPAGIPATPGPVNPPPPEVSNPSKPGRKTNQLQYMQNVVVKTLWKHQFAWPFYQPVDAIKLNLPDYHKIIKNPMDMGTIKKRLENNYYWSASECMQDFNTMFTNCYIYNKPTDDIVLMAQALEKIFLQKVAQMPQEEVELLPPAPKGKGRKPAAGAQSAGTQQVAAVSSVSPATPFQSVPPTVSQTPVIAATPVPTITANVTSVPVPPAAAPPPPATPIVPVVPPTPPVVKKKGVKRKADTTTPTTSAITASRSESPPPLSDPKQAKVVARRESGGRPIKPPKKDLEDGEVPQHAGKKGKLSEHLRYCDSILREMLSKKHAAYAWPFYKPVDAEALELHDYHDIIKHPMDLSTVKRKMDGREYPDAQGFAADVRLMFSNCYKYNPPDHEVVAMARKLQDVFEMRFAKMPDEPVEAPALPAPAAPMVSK

[4] = molecular target: Recombinant human BRDT(1-397) (Homo sapiens (Human), UniProt Q58F21); experiment: BRDT TR-FRET biochemical IC50 assay; type: binding
MV4-11 = MV4-11 (3 Days) EC50; type: cell-based
[5] = TR-FRET, tetra-acetylated histone peptide, read-out: BRD2 IC50
[6] = TR-FRET, tetra-acetylated histone peptide, read-out: BRD3 IC50
[7] = TR-FRET, tetra-acetylated histone peptide, read-out: BRDT IC50

Chain of Recombinant human BRD2(1-473) (P25440 1-473): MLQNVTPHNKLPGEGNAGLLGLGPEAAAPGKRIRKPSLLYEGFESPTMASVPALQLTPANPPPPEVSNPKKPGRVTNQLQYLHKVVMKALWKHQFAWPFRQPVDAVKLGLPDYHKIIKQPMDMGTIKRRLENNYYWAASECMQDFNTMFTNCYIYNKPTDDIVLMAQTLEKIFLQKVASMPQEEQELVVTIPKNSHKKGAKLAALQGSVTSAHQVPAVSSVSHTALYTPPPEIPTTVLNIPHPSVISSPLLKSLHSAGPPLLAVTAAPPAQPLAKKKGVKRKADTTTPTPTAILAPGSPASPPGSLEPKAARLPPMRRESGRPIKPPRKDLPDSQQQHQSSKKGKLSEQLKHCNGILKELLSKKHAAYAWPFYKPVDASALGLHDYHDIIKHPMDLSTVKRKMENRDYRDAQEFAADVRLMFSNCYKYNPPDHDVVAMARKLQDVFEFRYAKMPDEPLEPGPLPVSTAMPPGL

Compound: Cc1noc(C)c1-c1ccc2c(c1)C(O)(C1CCCCC1=O)C(=O)N2 (single isomer, unassigned) [Compound 1.30a, 5-(3,5-Dimethylisoxazol-4-yl)-3-hydroxy-3-(2-oxocyclohexyl)indolin-2-one]
- IC50 [1, 5]: 0.052 µM
- IC50 ([2]; TR-FRET, read-out: BRD4 IC50): 0.07 µM
- IC50 [3, 6]: 0.025 µM
- IC50 [4, 7]: 0.058 µM

Compound: Cc1noc(C)c1-c1ccc2c(c1)C(N[C@H](C)CO)(c1ccccc1)C(=O)N2 (single isomer, unassigned) [Compound 2.10a]
- IC50 [1, 5]: 0.024 µM
- IC50 [3, 6]: 0.023 µM
- IC50 [4, 7]: 0.069 µM

Compound: Cc1noc(C)c1-c1ccc2c(c1)C(O)(c1ccsc1)C(=O)N2 (single isomer, unassigned) [Compound 4.1b, 5-(3,5-Dimethylisoxazol-4-yl)-3-hydroxy-3-(thiophen-3-yl)indolin-2-one]
- IC50 [1]: 0.018 µM
- IC50 ([2]; BRD4 IC50, TR-FRET): 0.034 µM
- IC50 [3]: 0.014 µM
- EC50 (MV4-11; Homo sapiens, 72 h): 0.073 µM
- IC50 [4]: 0.031 µM

Compound: Cc1noc(C)c1-c1ccc2c(c1)C(NCC(C)O)(C1CCCCC1)C(=O)N2 (stereo in doubt) [Compound 2.22, 3-cyclohexyl-5-(3,5-dimethylisoxazol-4-yl)-3-((R)-2-hydroxypropylamino)indolin-2-one]
- IC50 [1, 5]: 0.032 µM
- IC50 ([2]; TR-FRET, read-out: BRD4 IC50): 0.081 µM
- IC50 [3, 6]: 0.023 µM
- EC50 (MV4-11): 0.116 µM
- IC50 [4, 7]: 0.042 µM

Compound: Cc1noc(C)c1-c1ccc2c(c1)C(O)(C1CCOCC1)C(=O)N2 (stereo not drawn) [Compound 1.16, 5-(3,5-dimethylisoxazol-4-yl)-3-hydroxy-3-(tetrahydro-2H-pyran-4-yl)indolin-2-one]
- IC50 [1, 5]: 0.38 µM
- IC50 ([2]; TR-FRET, read-out: BRD4 IC50): 0.63 µM
- IC50 [3, 6]: 0.14 µM
- IC50 [4, 7]: 0.51 µM

Compound: Cc1noc(C)c1-c1ccc2c(c1)C(c1ccccc1)(N1CCC[C@H](O)C1)C(=O)N2 (stereo partly drawn) [Compound 2.16, 5-(3,5-dimethylisoxazol-4-yl)-3-((S)-3-hydroxypiperidin-1-yl)-3-phenylindolin-2-one]
- IC50 [1, 5]: 0.0096 µM
- IC50 [3, 6]: 0.0099 µM
- IC50 [4, 7]: 0.023 µM

Compound: Cc1noc(C)c1-c1ccc2c(c1)C(c1ccccc1)(N1CCC[C@H](N)C1)C(=O)N2 (stereo partly drawn) [Compound 2.46, 3-((S)-3-aminopiperidin-1-yl)-5-(3,5-dimethylisoxazol-4-yl)-3-phenylindolin-2-one]
- IC50 [1, 5]: 0.0066 µM
- IC50 ([2]; TR-FRET, read-out: BRD4 IC50): 0.011 µM
- IC50 [3, 6]: 0.0053 µM
- IC50 [4, 7]: 0.014 µM

Compound: Cc1noc(C)c1-c1ccc2c(c1)C(CCCN1CCC(O)CC1)(c1ccccc1)C(=O)N2 (stereo not drawn) [Compound 3.9, 5-(3,5-Dimethylisoxazol-4-yl)-3-(3-(4-hydroxypiperidin-1-yl)propyl)-3-phenylindolin-2-one]
- IC50 ([2]; TR-FRET, read-out: BRD4 IC50): 0.12 µM
- EC50 (MV4-11; Homo sapiens, MV4-11, 72 h): 0.377 µM

Compound: Cc1noc(C)c1-c1ccc2c(c1)C(CCCN(C)C)(c1ccccc1)C(=O)N2 (stereo not drawn) [Compound 3.10, 3-(3-(Dimethylamino)propyl)-5-(3,5-dimethylisoxazol-4-yl)-3-phenylindolin-2-one]
- IC50 ([2]; TR-FRET, read-out: BRD4 IC50): 0.14 µM
- EC50 (MV4-11; Homo sapiens, MV4-11, 72 h): 0.49 µM

Compound: Cc1noc(C)c1-c1ccc2c(c1)C(O)(c1ccsc1)C(=O)N2 (stereo not drawn) [Compound 4.1, 5-(3,5-Dimethylisoxazol-4-yl)-3-hydroxy-3-(thiophen-3-yl)indolin-2-one]
- IC50 ([2]; TR-FRET, read-out: BRD4 IC50): 0.1 µM
- EC50 (MV4-11; Homo sapiens, 72 h): 0.14 µM

Compound: Cc1noc(C)c1-c1ccc2c(c1)C(NC(=O)CN(C)C)(c1ccccc1)C(=O)N2 (stereo not drawn) [Compound 6.0, 2-(Dimethylamino)-N-(5-(3,5-dimethylisoxazol-4-yl)-2-oxo-3-phenylindolin-3-yl)acetamide]
- IC50 ([2]; TR-FRET, read-out: BRD4 IC50): 0.32 µM
- EC50 (MV4-11; Homo sapiens, MV4-11, 72 h): 0.746 µM
